From patent US10053468B2, “Heterocyclic compound” (TAKEDA PHARMACEUTICAL COMPANY LIMITED, priority 2013, dated 2018)
Read-outs that look alike come from different tables or passages of the source.

What was measured:
RORγt [1] = biological target: T1, RORγt (Homo sapiens, UniProt P51449); experiment: RORγt binding test using fluorescent-labeled synthetic ligand (TR-FRET); conditions: read-out: Binding inhibitory rate of fluorescent-labeled synthetic ligand to RORγt at test compound 1 μM (%)
T1 sequence (P51449 1-497 isoform P51449-2): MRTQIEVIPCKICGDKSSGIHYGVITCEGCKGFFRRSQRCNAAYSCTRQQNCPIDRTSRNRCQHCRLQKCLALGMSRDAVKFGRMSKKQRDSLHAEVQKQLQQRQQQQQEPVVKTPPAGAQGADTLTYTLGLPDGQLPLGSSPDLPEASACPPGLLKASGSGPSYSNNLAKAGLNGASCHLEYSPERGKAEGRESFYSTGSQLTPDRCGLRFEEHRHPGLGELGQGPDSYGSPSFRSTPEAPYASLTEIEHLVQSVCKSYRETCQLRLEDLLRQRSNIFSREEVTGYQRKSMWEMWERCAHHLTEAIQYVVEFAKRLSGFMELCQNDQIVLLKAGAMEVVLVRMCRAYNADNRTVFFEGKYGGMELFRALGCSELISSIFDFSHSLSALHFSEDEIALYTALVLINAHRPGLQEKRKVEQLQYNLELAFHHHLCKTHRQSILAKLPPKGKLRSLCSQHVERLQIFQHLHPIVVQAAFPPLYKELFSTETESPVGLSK
Procedure, shortened: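 His-tagged RORγt (diluted to 240 nM) with compound, then fluorescent synthetic ligand (diluted to 12 μM), 20 min at room temperature, followed by Tb anti-His antibody (diluted to 8 nM), 20 min.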

RORγt [2] = biological target: T1, RORγt; experiment: Cofactor recruitment test (Alpha Screen, biotinylated SRC-1 peptide); format: biochemical; conditions: read-out: Signal value inhibitory rate at test compound 1 μM (%)
Method: Cofactor Recruitment Test
Cofactor recruitment test was performed by Alpha Screen (Histidine Detection Kit, PerkinElmer) method. First, a test compound was diluted with an assay buffer (50 mM Tris-HCl (pH 7.5), 50 mM KCl, 1 mM DTT, 0.1% BSA) and added to a 384 well plate by 5 μL. […] The mixture was stood in a dark place for 1 hr, and the signal value was measured by Envision (PerkinElmer).

RORγt [3] = biological target: T1, RORγt; experiment: Jurkat reporter test (human IL-17 ROR response element luciferase, RORγt vector); format: cell-based; conditions: read-out: Luminescence level inhibitory rate at test compound 3 μM (%)
Procedure, shortened: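 Jurkat cells were electroporated (1350 V, 10 ms, 3 pulses) with reporter constructs, then cultured overnight with compound in RPMI containing 10% lipid-reduced FCS, 10 mM HEPES pH 7.5 and 5 μM lovastatin. Luciferase was quantified by Bright-Glo luminescence after 10 min at room temperature.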

RORγt [4] = biological target: T1, RORγt; experiment: RORγt binding test using fluorescent-labeled cholesterol (TR-FRET); conditions: read-out: Binding inhibitory rate of fluorescent-labeled cholesterol to RORγt at test compound 1 μM (%)
Procedure, shortened: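 TR-FRET displacement with His-tagged RORγt, BODIPY-cholesterol and Tb-anti-His antibody in Tris-HCl pH 7.5, 100 mM NaCl, 1 mM DTT, 0.1% BSA. Compound, RORγt and labelled cholesterol were incubated 20 min at RT, then antibody was added for another 20 min.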

[5] = test compound 3 μM, Jurkat cells

Row | Structure (SMILES) | inhibition at 1 µM (RORγt [1]) [%] | inhibition at 1 µM (RORγt [2]) [%] | inhibition at 1 µM (RORγt [4]) [%] | inhibition at 3 µM (RORγt [3]; [5]) [%] | inhibition at 3 µM (RORγt [3]; Jurkat) [%]
1 | COCc1ccc2c(n1)CCN(C(=O)Cc1cc(O)no1)[C@H]2C(=O)Nc1cc(F)c([Si](C)(C)C)c(F)c1 [Example 138, (5R)-N-(3,5-difluoro-4-(trimethylsilyl)phenyl)-6-((3-hydroxy-1,2-oxazol-5-yl)acetyl)-2-(methoxymethyl)-5,6,7,8-tetrahydro-1,6-naphthyridine-5-carboxamide] | 101 | 100 | 102 | – | 104
2 | CCOc1ccc2c(n1)CCN(C(=O)Cc1cc(O)no1)[C@H]2C(=O)Nc1cc(F)c2c(c1)CCC2(C)C [Example 147, (5R)-2-ethoxy-N-(7-fluoro-1,1-dimethyl-2,3-dihydro-1H-inden-5-yl)-6-((3-hydroxy-1,2-oxazol-5-yl)acetyl)-5,6,7,8-tetrahydro-1,6-naphthyridine-5-carboxamide] | 101 | 89 | 101 | 101 | –
3 | CCOc1ccc2c(n1)CCN(C(=O)Cc1cc(O)no1)[C@H]2C(=O)Nc1ccc([Si](C)(C)C)c(F)c1 [Example 151, (5R)-2-ethoxy-N-(3-fluoro-4-(trimethylsilyl)phenyl)-6-((3-hydroxy-1,2-oxazol-5-yl)acetyl)-5,6,7,8-tetrahydro-1,6-naphthyridine-5-carboxamide] | 102 | 99 | 99 | – | 102
4 | CCOc1ccc2c(n1)CCN(C(=O)CCCC(=O)O)[C@H]2C(=O)Nc1ccc([Si](C)(C)C)c(F)c1 [Example 152, 5-((5R)-2-ethoxy-5-((3-fluoro-4-(trimethylsilyl)phenyl)carbamoyl)-7,8-dihydro-1,6-naphthyridin-6(5H)-yl)-5-oxopentanoic acid] | 101 | 97 | 102 | – | 103
5 | CCOc1ccc2c(c1)CCN(C(=O)c1cc(O)no1)[C@H]2C(=O)Nc1cc(F)c(C(C)(C)COC)c(F)c1 [Example 163, (1R)-N-(3,5-difluoro-4-(1-methoxy-2-methylpropan-2-yl)phenyl)-6-ethoxy-2-((3-hydroxy-1,2-oxazol-5-yl)carbonyl)-1,2,3,4-tetrahydroisoquinoline-1-carboxamide] | 102 | 97 | 100 | 101 | –
6 | CCOCC(C)(C)c1c(F)cc(NC(=O)[C@H]2c3ccc(OCC)cc3CCN2C(=O)CCCC(=O)O)cc1F [Example 166, 5-((1R)-6-ethoxy-1-((4-(1-ethoxy-2-methylpropan-2-yl)-3,5-difluorophenyl)carbamoyl)-3,4-dihydroisoquinolin-2(1H)-yl)-5-oxopentanoic acid] | 102 | 86 | 100 | 99 | –
7 | COCc1ccc2c(c1)CCN(C(=O)Cc1cc(O)no1)[C@H]2C(=O)Nc1cc(F)c2c(c1)CCC2(C)C [Example 169, (1R)-N-(7-fluoro-1,1-dimethyl-2,3-dihydro-1H-inden-5-yl)-2-((3-hydroxy-1,2-oxazol-5-yl)acetyl)-6-(methoxymethyl)-1,2,3,4-tetrahydroisoquinoline-1-carboxamide] | 102 | 93 | 102 | 102 | –

Now from value to molecule, other results behind:

Row | inhibition at 1 µM (RORγt [1]) [%] | inhibition at 1 µM (RORγt [2]) [%] | inhibition at 1 µM (RORγt [4]) [%] | inhibition at 3 µM (RORγt [3]; [5]) [%] | Structure (SMILES) | inhibition at 3 µM (RORγt [3]; Jurkat) [%]
8 | 101 | 56 | 101 | 83 | CCOc1ccc2c(c1)CCN(C(=O)Cc1cc(O)no1)[C@H]2C(=O)Nc1cc(F)c(C(C)(C)COCCOC)c(F)c1 [Example 143, (1R)-N-(3,5-difluoro-4-(1-(2-methoxyethoxy)-2-methylpropan-2-yl)phenyl)-6-ethoxy-2-((3-hydroxy-1,2-oxazol-5-yl)acetyl)-1,2,3,4-tetrahydroisoquinoline-1-carboxamide] | –
9 | 102 | 84 | 100 | 97 | CCOc1ccc2c(c1)CCN(C(=O)CCCC(=O)O)[C@H]2C(=O)Nc1cc(F)c(C(C)(C)COCC(F)F)c(F)c1 [Example 153, 5-((1R)-1-((4-(1-(2,2-difluoroethoxy)-2-methylpropan-2-yl)-3,5-difluorophenyl)carbamoyl)-6-ethoxy-3,4-dihydroisoquinolin-2 (1H)-yl)-5-oxopentanoic acid] | –
10 | 102 | 85 | 101 | 98 | CCOc1ccc2c(c1)CCN(C(=O)c1cc(O)no1)[C@H]2C(=O)Nc1cc(F)c(C(C)(C)COCC(F)F)c(F)c1 [Example 154, (1R)-N-(4-(1-(2,2-difluoroethoxy)-2-methylpropan-2-yl)-3,5-difluorophenyl)-6-ethoxy-2-((3-hydroxy-1,2-oxazol-5-yl)carbonyl)-1,2,3,4-tetrahydroisoquinoline-1-carboxamide] | –
11 | 101 | 84 | 101 | 99 | CCOc1ccc2c(c1)CCN(C(=O)Cc1cc(O)no1)[C@H]2C(=O)Nc1cc(F)c(C(C)(C)COCC(F)F)c(F)c1 [Example 155, (1R)-N-(4-(1-(2,2-difluoroethoxy)-2-methylpropan-2-yl)-3,5-difluorophenyl)-6-ethoxy-2-((3-hydroxy-1,2-oxazol-5-yl)acetyl)-1,2,3,4-tetrahydroisoquinoline-1-carboxamide] | –
12 | 102 | 74 | 99 | 94 | COc1ccc2c(c1)CCN(C(=O)Cc1cc(O)no1)[C@H]2C(=O)Nc1cc(F)c(C(C)(C)COCC2CC2)c(F)c1 [Example 157, (1R)-N-(4-(1-(cyclopropylmethoxy)-2-methylpropan-2-yl)-3,5-difluorophenyl)-2-((3-hydroxy-1,2-oxazol-5-yl)acetyl)-6-methoxy-1,2,3,4-tetrahydroisoquinoline-1-carboxamide] | –
13 | 101 | 80 | 100 | 97 | COc1ccc2c(c1)CCN(C(=O)Cc1cc(O)no1)[C@H]2C(=O)Nc1cc(F)c(C(C)(C)COCC(F)F)c(F)c1 [Example 159, (1R)-N-(4-(1-(2,2-difluoroethoxy)-2-methylpropan-2-yl)-3,5-difluorophenyl)-2-((3-hydroxy-1,2-oxazol-5-yl)acetyl)-6-methoxy-1,2,3,4-tetrahydroisoquinoline-1-carboxamide] | –
14 | 102 | 85 | 101 | 97 | CCOCC(C)(C)c1c(F)cc(NC(=O)[C@H]2c3ccc(OCC)cc3CCN2C(=O)c2cc(O)no2)cc1F [Example 167, (1R)-6-ethoxy-N-(4-(1-ethoxy-2-methylpropan-2-yl)-3,5-difluorophenyl)-2-((3-hydroxy-1,2-oxazol-5-yl)carbonyl)-1,2,3,4-tetrahydroisoquinoline-1-carboxamide] | –
15 | 102 | 81 | 102 | 97 | CCOCC(C)(C)c1c(F)cc(NC(=O)[C@H]2c3ccc(OC)cc3CCN2C(=O)Cc2cc(O)no2)cc1F [Example 170, (1R)-N-(4-(1-ethoxy-2-methylpropan-2-yl)-3,5-difluorophenyl)-2-((3-hydroxy-1,2-oxazol-5-yl)acetyl)-6-methoxy-1,2,3,4-tetrahydroisoquinoline-1-carboxamide] | –
